Source: patent US7001983B1, “Antipathogenic synthetic peptides and compositions comprising them” (priority 1997, dated 2006)

How the values were obtained:
Format in all cases: cell-based
[1] = system: human red blood cells (hRBC); assay: Hemolysis of human red blood cells; settings: hRBC, 50 μM peptide, 30 min at 37° C.
Protocol: (ix) Hemolysis of human red blood cells. The peptides were tested for their hemolytic activities against human red blood cells (hRBC). Fresh hRBC with EDTA were rinsed 3 times with PBS (35 mM phosphate buffer/0.15 M NaCl, pH 7.3) by centrifugation for 10 min at 800 g and resuspended in PBS. Peptides dissolved in PBS were then added to 50 μL of a solution of the stock hRBC in PBS to reach a final volume of 100 μL (final erythrocyte concentration, 5% v/v). The resulting suspension was incubated under agitation for 30 min at 37° C. The samples were then centrifuged at 800 g for 10 min. Release of hemoglobin was monitored by measuring the absorbance of the supernatant at 540 nm. Controls for zero hemolysis (blank) and 100% hemolysis consisted of hRBC suspended in PBS and Triton 1%, respectively.

Bacillus megaterium Bm11 = settings: 100% inhibition of growth after 18–20 h
Escherichia coli D21 = settings: 100% inhibition of growth after 18–20 h

Structure (SMILES)	% hemolysis at 50 μM peptide [1] [%]	Minimal Inhibitory Concentration B. megaterium (Bm11) (Bacillus megaterium Bm11) [µM]	Minimal Inhibitory Concentration E. coli (D21) (Escherichia coli D21) [µM]
CC[C@H](C)[C@H](NC(=O)[C@H](CCCCN)NC(=O)[C@@H]1CCCN1C(=O)[C@@H](NC(=O)[C@H](CC(C)C)NC(=O)[C@H](C)NC(=O)[C@H](Cc1ccccc1)NC(=O)[C@H](Cc1ccccc1)NC(=O)CN)[C@@H](C)CC)C(=O)N[C@H](C(=O)N[C@@H](CO)C(=O)N[C@@H](CO)C(=O)N1CCC[C@@H]1C(=O)N[C@@H](CC(C)C)C(=O)N[C@@H](Cc1ccccc1)C(=O)N[C@@H](CCCCN)C(=O)N[C@H](C(=O)N[C@@H](CC(C)C)C(=O)N[C@@H](CC(C)C)C(=O)N[C@@H](CO)C(=O)N[C@@H](C)C(=O)N[C@H](C(=O)NCC(=O)N[C@@H](CO)C(=O)N[C@@H](C)C(=O)N[C@@H](CC(C)C)C(=O)N[C@@H](CO)C(=O)N[C@@H](CO)C(=O)N[C@@H](CO)C(=O)NCC(=O)NCC(=O)N[C@@H](CCC(N)=O)C(=O)N[C@@H](CCC(=O)NCCN)C(=O)NCCN)C(C)C)[C@@H](C)O)[C@@H](C)CC [Peptide 9, [D]P^13-TApar]	83	1.5	3
CC[C@H](C)[C@H](NC(=O)[C@H](CCCCN)NC(=O)[C@@H]1CCCN1C(=O)[C@@H](NC(=O)[C@@H](CC(C)C)NC(=O)[C@H](C)NC(=O)[C@H](Cc1ccccc1)NC(=O)[C@H](Cc1ccccc1)NC(=O)CN)[C@@H](C)CC)C(=O)N[C@H](C(=O)N[C@@H](CO)C(=O)N[C@@H](CO)C(=O)N1CCC[C@H]1C(=O)N[C@@H](CC(C)C)C(=O)N[C@@H](Cc1ccccc1)C(=O)N[C@@H](CCCCN)C(=O)N[C@H](C(=O)N[C@@H](CC(C)C)C(=O)N[C@H](CC(C)C)C(=O)N[C@@H](CO)C(=O)N[C@@H](C)C(=O)N[C@H](C(=O)NCC(=O)N[C@@H](CO)C(=O)N[C@@H](C)C(=O)N[C@@H](CC(C)C)C(=O)N[C@@H](CO)C(=O)N[C@@H](CO)C(=O)N[C@@H](CO)C(=O)NCC(=O)NCC(=O)N[C@@H](CCC(N)=O)C(=O)N[C@@H](CCC(=O)NCCN)C(=O)NCCN)C(C)C)[C@@H](C)O)[C@@H](C)CC [Peptide 10, [D]L^5L^19-TApar]	56	1.3	3
CC[C@H](C)[C@H](NC(=O)[C@H](CCCCN)NC(=O)[C@H]1CCCN1C(=O)[C@@H](NC(=O)[C@H](CC(C)C)NC(=O)[C@H](C)NC(=O)[C@H](Cc1ccccc1)NC(=O)[C@H](Cc1ccccc1)NC(=O)CN)[C@@H](C)CC)C(=O)N[C@H](C(=O)N[C@@H](CO)C(=O)N[C@@H](CO)C(=O)N1CCC[C@H]1C(=O)N[C@@H](CC(C)C)C(=O)N[C@@H](Cc1ccccc1)C(=O)N[C@@H](CCCCN)C(=O)N[C@H](C(=O)N[C@@H](CC(C)C)C(=O)N[C@H](CC(C)C)C(=O)N[C@@H](CO)C(=O)N[C@@H](C)C(=O)N[C@H](C(=O)NCC(=O)N[C@@H](CO)C(=O)N[C@@H](C)C(=O)N[C@@H](CC(C)C)C(=O)N[C@@H](CO)C(=O)N[C@@H](CO)C(=O)N[C@@H](CO)C(=O)NCC(=O)NCC(=O)N[C@@H](CCC(N)=O)C(=O)N[C@@H](CCC(=O)NCCN)C(=O)NCCN)C(C)C)[C@@H](C)O)[C@@H](C)CC [Peptide 11, [D]P^7L^19-TApar]	82	1.5	3
CC[C@H](C)[C@H](NC(=O)[C@H](CCCCN)NC(=O)[C@H]1CCCN1C(=O)[C@@H](NC(=O)[C@H](CC(C)C)NC(=O)[C@H](C)NC(=O)[C@H](Cc1ccccc1)NC(=O)[C@H](Cc1ccccc1)NC(=O)CN)[C@@H](C)CC)C(=O)N[C@H](C(=O)N[C@@H](CO)C(=O)N[C@@H](CO)C(=O)N1CCC[C@H]1C(=O)N[C@@H](CC(C)C)C(=O)N[C@@H](Cc1ccccc1)C(=O)N[C@@H](CCCCN)C(=O)N[C@H](C(=O)N[C@@H](CC(C)C)C(=O)N[C@@H](CC(C)C)C(=O)N[C@@H](CO)C(=O)N[C@@H](C)C(=O)N[C@H](C(=O)NCCN)C(C)C)[C@@H](C)O)[C@@H](C)CC [Peptide 17, [D]P^7[1-22]-TApar]	17	1	10
